# Several values for one entry are separate records, joined by “and”; a condition that tells them apart may be missing. Equal entries are not always repeated. Where two headings read alike, the source gives them in different places.
# What was measured:
# Type in all cases: cell-based
# Hepatitis B virus [1] = test: Effect on synthesis of antigen markers in persistently infected human HEP G2 cell cultures (Table 7); conditions: for Relative Level of HBeAg / Relative Level of HBsAg / Relative Level of Virion DNA / activity at 10 µM: nine days; for Relative Level of HBeAg / Relative Level of HBsAg / Relative Level of Virion DNA: 12960 min; for activity at 10 µM: Hepatitis B virus, HepG2, 216 h; for effect on HBsAg levels released into the culture medium / reduction in HBeAg and virion DNA levels: in words
# Protocol: Cells were treated with compound for nine days at 37° C. The overlay medium was harvested to measure levels of HBsAg, HBeAg and virion DNA. HBsAg and HBeAg were assayed by EIA (Abbott Laboratories). Virion DNA levels were measured as described in section B above.
# [2] = Cytotoxicity in HBV persistently infected human HEP G2 cells, neutral red dye uptake (Table 5); conditions: human, hep-g2 cells
# From the text: (§1) Initially, evaluations of the alkyl lipids were done to determine whether the compounds were cytotoxic to the cells at concentrations having anti-HBV activity. The assay methodology is szt forth in Korba and Germ, Antiviral Res., 19, 55-70 (1992), incorporated by reference herein. Briefly, these cell cytotoxicity evaluations were done in 96-well plates seeded with HEP-G2 cell monolayers. The hepatoblastoma cell line HEP-G2 transfected with a plasmid carrying the gene that confers resistance to […] and four 5'-3' tandem copies of the Hepatitis B virus genome was obtained from Dr. George Acs. Proc. Natl. Acad. Sci. USA, 84, 1005-1009 (1987). Serial concentrations of compound were added to the RPMI-1640 growth medium and the growth medium was added to the 96-well plates containing the cell monolayers. The cells were incubated for a total of nine days at 37° C. The compound-containing medium was periodically replaced. Each compound was tested at four serial concentrations in triplicate. After nine days of treatment and incubation, 0.01% neutral red dye (Sigma, Inc.) was added to the overlay medium. Cell cytotoxicity was quantitated by measuring the average A510. Values in Table 1 represent the percentage of average A510 values (±standard deviation) relative to nine non-treated control wells.
# (§2) An analysis was periormed to determine the cytotoxicity of the following compounds in human HEP-G2 cells persistently infected with HBV: CP-51, CP-49, CP-9, CP-126, lyso PAF and CP-7. 2'-3'-Dideoxycytidine (ddC) was used as a control in this cytotoxicity analysis. The toxicity analyses were performed in 96-well flat bottomed tissue culture plates following the same procedure set forth in Example 6 above. Each compound was tested at four concentrations, each in triplicate cultures. Uptake of neutral red dye was used to determine the relative level of toxicity. The absorbance of internalized dye at […] (A510) was used for the quantitative analysis.
# (§3) Values are presented as a percentage of the average A510 values (± standard deviations) in ninz separate cultures of untreated cells maintained on the same 96-well plate as the test compounds. The percentage of dye uptake in the nine control cultures was 100±1.
# [3] = tested on: HEP G2 cells persistently infected with HBV; test: as above
# From the text: as §1, §2, §3
# Hepatitis B virus [4] = test: Effect of alkyl lipids on HBV replication in HBV persistently infected human HEP G2 cells (Table 6); conditions: for Intracellular HBV DNA, Mono (episomal 3.2-3.8 Kb HBV genomes) / Intracellular HBV DNA, RI (replication intermediates): nine days; for inhibition of HBV replication: in words
# Protocol: Cells were treated with a particular compound for nine days at 37° C. Analysis of intracellular HEIV DNA was done 24 hours following the ninth day of treatment. […] The levels of integrated HBV DNA in each cellular DNA preparation were used to calculate the levels of episomal 3.2-3.8 Kb HBV genomes (Mono) and HBV DNA replication intermediates (RI). A zero value indicates an undetectable level of HBV virion DNA. The sensitivity cut-off was 0.1 pg DNA/ml of culture medium.
# [5] = 10 μM, Day 9, 0 = undetectable, cut-off 0.1 pg DNA/ml
# [6] = % of Control Neutral Red Dye Uptake
Compound,Relative Level of HBeAg (Hepatitis B virus [1]; 10 μM),Relative Level of HBsAg (Hepatitis B virus [1]; 10 μM),Relative Level of Virion DNA (Hepatitis B virus [1]; 10 μM),effect on HBsAg levels released into the culture medium (Hepatitis B virus [1]),reduction in HBeAg and virion DNA levels (Hepatitis B virus [1]),"HBV Virion DNA (Hepatitis B virus [4]; 1 μM, Day 0)","HBV Virion DNA (Hepatitis B virus [4]; 1 μM, Day 3)","HBV Virion DNA (Hepatitis B virus [4]; 1 μM, Day 6)","HBV Virion DNA (Hepatitis B virus [4]; 1 μM, Day 9)","Intracellular HBV DNA, Mono (episomal 3.2-3.8 Kb HBV genomes) (Hepatitis B virus [4]; 1 μM)","Intracellular HBV DNA, RI (replication intermediates) (Hepatitis B virus [4]; 1 μM)","HBV Virion DNA (Hepatitis B virus [4]; 10 μM, Day 0)","HBV Virion DNA (Hepatitis B virus [4]; 10 μM, Day 3)","HBV Virion DNA (Hepatitis B virus [4]; 10 μM, Day 6)",HBV Virion DNA (Hepatitis B virus [4]; [5]),"Intracellular HBV DNA, Mono (episomal 3.2-3.8 Kb HBV genomes) (Hepatitis B virus [4]; 10 μM)","Intracellular HBV DNA, RI (replication intermediates) (Hepatitis B virus [4]; 10 μM)",inhibition of HBV replication (Hepatitis B virus [4]),other results
"CCCCCCCCCCCCOCC(COP(=O)(O)OC[C@H]1O[C@@H](n2cc(C)c(=O)[nH]c2=O)C[C@@H]1N=[N+]=[N-])OCCCCCCCCCC (mixture of isomers) [CP-126, 3'-Azido-3'-deoxy-5'-(rac-3-dodecyloxy-2-decyloxy-1-propyl) phosphothymidine]",42 % of Untreated Control,69 % of Untreated Control,14 % of Untreated Control,None of the compounds tested,caused a reduction,67 pg/ml Culture Medium and 54 pg/ml Culture Medium and 70 pg/ml Culture Medium and 69 pg/ml Culture Medium,49 pg/ml Culture Medium and 57 pg/ml Culture Medium and 65 pg/ml Culture Medium and 53 pg/ml Culture Medium,40 pg/ml Culture Medium and 39 pg/ml Culture Medium and 44 pg/ml Culture Medium and 48 pg/ml Culture Medium,28 pg/ml Culture Medium and 20 pg/ml Culture Medium and 22 pg/ml Culture Medium and 26 pg/ml Culture Medium,2.3 pg/μg Cell DNA and 2.7 pg/μg Cell DNA and 2.1 pg/μg Cell DNA and 1.8 pg/μg Cell DNA,51 pg/μg Cell DNA and 67 pg/μg Cell DNA and 56 pg/μg Cell DNA and 61 pg/μg Cell DNA,60 pg/ml Culture Medium and 62 pg/ml Culture Medium and 59 pg/ml Culture Medium and 51 pg/ml Culture Medium,59 pg/ml Culture Medium and 50 pg/ml Culture Medium and 55 pg/ml Culture Medium and 66 pg/ml Culture Medium,20 pg/ml Culture Medium and 21 pg/ml Culture Medium and 26 pg/ml Culture Medium and 29 pg/ml Culture Medium,13 pg/ml Culture Medium and 8 pg/ml Culture Medium and 9 pg/ml Culture Medium and 12 pg/ml Culture Medium,1.9 pg/μg Cell DNA and 2.5 pg/μg Cell DNA and 2.0 pg/μg Cell DNA and 2.3 pg/μg Cell DNA,14 pg/μg Cell DNA and 9 pg/μg Cell DNA and 12 pg/μg Cell DNA and 16 pg/μg Cell DNA,moderately inhibitory of HBV replication,"activity at 10 µM (Hepatitis B virus [1]; read-out: Relative Level of HBeAg, 10 μM): 35%; activity at 10 µM (Hepatitis B virus [1]; read-out: Relative Level of HBsAg, 10 μM): 65%; activity at 10 µM (Hepatitis B virus [1]; read-out: Relative Level of Virion DNA, 10 μM): 10%; viability at 216 h, 3 µM ([2]; Trial 2, 3 μM, read-out: % of Control Neutral Red Dye Uptake): 100 ± 1%; viability at 216 h, 10 µM ([2]; Trial 2, 10 μM, read-out: % of Control Neutral Red Dye Uptake): 97 ± 3%; viability at 216 h, 30 µM ([2]; Trial 2, 30 μM, read-out: % of Control Neutral Red Dye Uptake): 68 ± 1%; viability at 216 h, 100 µM ([2]; Trial 2, 100 μM, read-out: % of Control Neutral Red Dye Uptake): 20 ± 2%; Cell toxicity (greater than 50% depression of dye uptake) ([3]; at concentrations with strong or moderate antiviral activity): did not occur; HBV Virion DNA (Hepatitis B virus [4]; 0.1 μM, Day 0): 50 pg/ml Culture Medium and 52 pg/ml Culture Medium and 54 pg/ml Culture Medium and 60 pg/ml Culture Medium; HBV Virion DNA (Hepatitis B virus [4]; 0.1 μM, Day 3): 77 pg/ml Culture Medium and 79 pg/ml Culture Medium and 67 pg/ml Culture Medium and 65 pg/ml Culture Medium; HBV Virion DNA (Hepatitis B virus [4]; 0.1 μM, Day 6): 61 pg/ml Culture Medium and 72 pg/ml Culture Medium and 83 pg/ml Culture Medium and 66 pg/ml Culture Medium; HBV Virion DNA (Hepatitis B virus [4]; 0.1 μM, Day 9): 78 pg/ml Culture Medium and 64 pg/ml Culture Medium and 82 pg/ml Culture Medium and 77 pg/ml Culture Medium; Intracellular HBV DNA, Mono (episomal 3.2-3.8 Kb HBV genomes) (Hepatitis B virus [4]; 0.1 μM): 2.2 pg/μg Cell DNA and 2.6 pg/μg Cell DNA and 2.4 pg/μg Cell DNA; Intracellular HBV DNA, RI (replication intermediates) (Hepatitis B virus [4]; 0.1 μM): 64 pg/μg Cell DNA and 54 pg/μg Cell DNA and 70 pg/μg Cell DNA and 89 pg/μg Cell DNA"
"CCCCCCCCCCCCCCCCSCCOP(=O)([O-])OCC[N+](C)(C)C [CP-9, 2-hexadecylthio-1-ethylphosphocholine]",57 % of Untreated Control,64 % of Untreated Control,16 % of Untreated Control,None of the compounds tested,caused a reduction,59 pg/ml Culture Medium and 53 pg/ml Culture Medium and 60 pg/ml Culture Medium and 58 pg/ml Culture Medium and 50 pg/ml Culture Medium and 55 pg/ml Culture Medium and 65 pg/ml Culture Medium,66 pg/ml Culture Medium and 60 pg/ml Culture Medium and 82 pg/ml Culture Medium and 55 pg/ml Culture Medium and 52 pg/ml Culture Medium and 64 pg/ml Culture Medium and 90 pg/ml Culture Medium and 63 pg/ml Culture Medium,57 pg/ml Culture Medium and 52 pg/ml Culture Medium and 88 pg/ml Culture Medium and 78 pg/ml Culture Medium and 83 pg/ml Culture Medium and 91 pg/ml Culture Medium and 64 pg/ml Culture Medium,69 pg/ml Culture Medium and 71 pg/ml Culture Medium and 94 pg/ml Culture Medium and 76 pg/ml Culture Medium and 80 pg/ml Culture Medium and 92 pg/ml Culture Medium,2.1 pg/μg Cell DNA and 2.6 pg/μg Cell DNA and 2.3 pg/μg Cell DNA and 2.0 pg/μg Cell DNA and 2.2 pg/μg Cell DNA and 2.4 pg/μg Cell DNA,53 pg/μg Cell DNA and 82 pg/μg Cell DNA and 67 pg/μg Cell DNA and 60 pg/μg Cell DNA and 54 pg/μg Cell DNA and 64 pg/μg Cell DNA and 66 pg/μg Cell DNA,60 pg/ml Culture Medium and 66 pg/ml Culture Medium and 61 pg/ml Culture Medium and 52 pg/ml Culture Medium,52 pg/ml Culture Medium and 68 pg/ml Culture Medium and 57 pg/ml Culture Medium and 60 pg/ml Culture Medium,33 pg/ml Culture Medium and 40 pg/ml Culture Medium and 39 pg/ml Culture Medium and 41 pg/ml Culture Medium,10 pg/ml Culture Medium and 14 pg/ml Culture Medium and 11 pg/ml Culture Medium,2.3 pg/μg Cell DNA and 2.2 pg/μg Cell DNA,13 pg/μg Cell DNA and 14 pg/μg Cell DNA and 17 pg/μg Cell DNA and 12 pg/μg Cell DNA,moderately inhibitory of HBV replication,"activity at 10 µM (Hepatitis B virus [1]; 10 μM, read-out: Relative Level of HBeAg): 53%; activity at 10 µM (Hepatitis B virus [1]; 10 μM, read-out: Relative Level of HBsAg): 68%; activity at 10 µM (Hepatitis B virus [1]; 10 μM, read-out: Relative Level of Virion DNA): 13%; viability at 216 h, 3 µM [2, 6]: 100 ± 1%; viability at 216 h, 10 µM [2, 6]: 99 ± 2%; viability at 216 h, 30 µM [2, 6]: 86 ± 2%; viability at 216 h, 100 µM [2, 6]: 45 ± 2%; Cell toxicity (greater than 50% depression of dye uptake) [3]: did not occur"
